Experimental data as given in the kinase profiling compilation of Christmann-Franck et al. (2016).
Several values for one entry are separate records, joined by “and”; a condition that tells them apart may be missing. Identical values can stand only once.

Key:
Assay in all cases: radiometric filter-binding kinase assay, Kinase HotSpot
Conditions in all cases: compound 0.5 µM; ATP 10 µM
ACVR1 (human) = ACVR1 (human) (UniProt Q04771)
ADRBK1 (human) = ADRBK1 (human) (UniProt P25098)
ADRBK2 (human) = ADRBK2 (human) (UniProt P35626)
BRAF (human) = BRAF (human) (UniProt P15056)
CDC42BPA (human) = CDC42BPA (human) (UniProt Q5VT25)
CDC42BPB (human) = CDC42BPB (human) (UniProt Q9Y5S2)
CHEK1 (human) = CHEK1 (human) (UniProt O14757)
DSTYK (human) = DSTYK (human) (UniProt Q6XUX3)
DYRK2 (human) = DYRK2 (human) (UniProt Q92630)
EPHA6 (human) = EPHA6 (human) (UniProt Q9UF33)
EPHB3 (human) = EPHB3 (human) (UniProt P54753)
FGFR4 (human) = FGFR4 (human) (UniProt P22455)
IGF1R (human) = IGF1R (human) (UniProt P08069)
IRAK4 (human) = IRAK4 (human) (UniProt Q9NWZ3)
LIMK1 (human) = LIMK1 (human) (UniProt P53667)
LYN (human) = LYN (human) (UniProt P07948)
MET (human) = MET (human) (UniProt P08581)
NEK3 (human) = NEK3 (human) (UniProt P51956)
NEK6 (human) = NEK6 (human) (UniProt Q9HC98)
NEK9 (human) = NEK9 (human) (UniProt Q8TD19)
NUAK2 (human) = NUAK2 (human) (UniProt Q9H093)
PDGFRA (human) = PDGFRA (human) (UniProt P16234)
PHKG1 (human) = PHKG1 (human) (UniProt Q16816)
PHKG2 (human) = PHKG2 (human) (UniProt P15735)
PRKCD (human) = PRKCD (human) (UniProt Q05655)
RAF1 (human) = RAF1 (human) (UniProt P04049)
RPS6KA6 KD1 KD2 (human) = RPS6KA6 KD1 KD2 (human) (UniProt Q9UK32)
SRMS (human) = SRMS (human) (UniProt Q9H3Y6)
STK16 (human) = STK16 (human) (UniProt O75716)
STK25 (human) = STK25 (human) (UniProt O00506)
TEC (human) = TEC (human) (UniProt P42680)
TGFBR1 (human) = TGFBR1 (human) (UniProt P36897)
TLK2 (human) = TLK2 (human) (UniProt Q86UE8)
TSSK2 (human) = TSSK2 (human) (UniProt Q96PF2)
ABL1 (human) = ABL1 (human) (UniProt P00519)
CAMK1G (human) = CAMK1G (human) (UniProt Q96NX5)
DAPK2 (human) = DAPK2 (human) (UniProt Q9UIK4)
EPHB4 (human) = EPHB4 (human) (UniProt P54760)
MAP3K9 (human) = MAP3K9 (human) (UniProt P80192)
PTK2 (human) = PTK2 (human) (UniProt Q05397)

NUAK2 (human), sequence (Q9H093 whole entry, looked up): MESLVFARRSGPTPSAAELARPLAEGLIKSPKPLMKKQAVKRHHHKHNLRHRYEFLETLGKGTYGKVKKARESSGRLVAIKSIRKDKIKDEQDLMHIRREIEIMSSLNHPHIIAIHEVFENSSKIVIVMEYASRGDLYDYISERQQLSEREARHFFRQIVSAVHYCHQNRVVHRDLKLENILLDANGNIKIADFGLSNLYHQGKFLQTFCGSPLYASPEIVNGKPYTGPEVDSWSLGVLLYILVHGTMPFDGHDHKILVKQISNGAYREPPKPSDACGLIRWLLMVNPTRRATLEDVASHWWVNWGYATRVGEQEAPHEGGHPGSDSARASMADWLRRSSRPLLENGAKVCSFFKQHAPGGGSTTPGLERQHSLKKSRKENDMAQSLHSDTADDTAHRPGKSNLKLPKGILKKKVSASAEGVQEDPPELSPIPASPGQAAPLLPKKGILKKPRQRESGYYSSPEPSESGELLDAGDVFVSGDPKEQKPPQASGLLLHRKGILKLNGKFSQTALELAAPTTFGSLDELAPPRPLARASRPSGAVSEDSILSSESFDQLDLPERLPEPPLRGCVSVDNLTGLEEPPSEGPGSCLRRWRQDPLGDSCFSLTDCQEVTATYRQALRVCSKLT
EPHA6 (human), sequence (Q9UF33 whole entry, looked up): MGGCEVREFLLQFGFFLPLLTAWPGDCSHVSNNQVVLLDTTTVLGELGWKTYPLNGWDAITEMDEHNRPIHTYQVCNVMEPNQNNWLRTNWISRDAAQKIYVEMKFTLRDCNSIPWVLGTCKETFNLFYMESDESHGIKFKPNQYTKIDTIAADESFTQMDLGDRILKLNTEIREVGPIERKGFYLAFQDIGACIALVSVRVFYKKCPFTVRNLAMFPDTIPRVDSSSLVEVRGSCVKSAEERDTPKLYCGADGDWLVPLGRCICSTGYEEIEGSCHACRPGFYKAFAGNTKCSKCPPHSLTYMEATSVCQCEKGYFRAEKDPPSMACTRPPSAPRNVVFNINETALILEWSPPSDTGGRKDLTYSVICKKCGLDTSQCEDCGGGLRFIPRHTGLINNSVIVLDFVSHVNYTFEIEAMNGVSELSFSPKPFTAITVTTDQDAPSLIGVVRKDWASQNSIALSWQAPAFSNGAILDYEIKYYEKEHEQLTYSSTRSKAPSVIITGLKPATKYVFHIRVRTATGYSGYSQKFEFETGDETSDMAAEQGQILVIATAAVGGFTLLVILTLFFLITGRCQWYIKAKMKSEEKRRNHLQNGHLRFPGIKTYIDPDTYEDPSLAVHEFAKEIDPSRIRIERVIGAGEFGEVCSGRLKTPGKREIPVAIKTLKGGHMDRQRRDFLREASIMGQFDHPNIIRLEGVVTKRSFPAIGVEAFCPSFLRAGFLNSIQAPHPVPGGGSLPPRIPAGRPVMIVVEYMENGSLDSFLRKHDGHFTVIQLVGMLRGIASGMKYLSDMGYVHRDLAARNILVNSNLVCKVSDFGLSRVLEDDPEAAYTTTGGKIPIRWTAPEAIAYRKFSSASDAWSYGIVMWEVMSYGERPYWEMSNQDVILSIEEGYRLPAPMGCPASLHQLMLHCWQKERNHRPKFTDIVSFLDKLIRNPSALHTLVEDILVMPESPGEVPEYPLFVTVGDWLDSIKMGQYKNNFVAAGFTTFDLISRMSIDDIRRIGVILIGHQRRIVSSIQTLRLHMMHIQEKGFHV
TEC (human), sequence (P42680 whole entry, looked up): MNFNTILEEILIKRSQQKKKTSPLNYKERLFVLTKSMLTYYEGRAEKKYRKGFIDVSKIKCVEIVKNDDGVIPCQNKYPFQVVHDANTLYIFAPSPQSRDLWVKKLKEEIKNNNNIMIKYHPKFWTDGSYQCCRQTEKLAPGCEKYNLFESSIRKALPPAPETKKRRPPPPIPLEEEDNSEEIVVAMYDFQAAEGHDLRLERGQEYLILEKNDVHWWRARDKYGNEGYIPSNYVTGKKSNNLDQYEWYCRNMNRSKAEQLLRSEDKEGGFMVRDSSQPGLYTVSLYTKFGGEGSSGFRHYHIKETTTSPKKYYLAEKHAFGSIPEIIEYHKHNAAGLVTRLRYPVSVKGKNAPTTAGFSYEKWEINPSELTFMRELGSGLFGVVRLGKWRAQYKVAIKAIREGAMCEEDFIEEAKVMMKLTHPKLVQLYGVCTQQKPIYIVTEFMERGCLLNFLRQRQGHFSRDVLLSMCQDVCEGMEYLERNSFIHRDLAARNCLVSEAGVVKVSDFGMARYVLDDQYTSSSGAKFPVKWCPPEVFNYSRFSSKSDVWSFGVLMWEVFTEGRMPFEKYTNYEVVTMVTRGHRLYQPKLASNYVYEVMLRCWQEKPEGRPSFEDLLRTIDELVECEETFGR
MET (human), sequence (P08581 whole entry, looked up): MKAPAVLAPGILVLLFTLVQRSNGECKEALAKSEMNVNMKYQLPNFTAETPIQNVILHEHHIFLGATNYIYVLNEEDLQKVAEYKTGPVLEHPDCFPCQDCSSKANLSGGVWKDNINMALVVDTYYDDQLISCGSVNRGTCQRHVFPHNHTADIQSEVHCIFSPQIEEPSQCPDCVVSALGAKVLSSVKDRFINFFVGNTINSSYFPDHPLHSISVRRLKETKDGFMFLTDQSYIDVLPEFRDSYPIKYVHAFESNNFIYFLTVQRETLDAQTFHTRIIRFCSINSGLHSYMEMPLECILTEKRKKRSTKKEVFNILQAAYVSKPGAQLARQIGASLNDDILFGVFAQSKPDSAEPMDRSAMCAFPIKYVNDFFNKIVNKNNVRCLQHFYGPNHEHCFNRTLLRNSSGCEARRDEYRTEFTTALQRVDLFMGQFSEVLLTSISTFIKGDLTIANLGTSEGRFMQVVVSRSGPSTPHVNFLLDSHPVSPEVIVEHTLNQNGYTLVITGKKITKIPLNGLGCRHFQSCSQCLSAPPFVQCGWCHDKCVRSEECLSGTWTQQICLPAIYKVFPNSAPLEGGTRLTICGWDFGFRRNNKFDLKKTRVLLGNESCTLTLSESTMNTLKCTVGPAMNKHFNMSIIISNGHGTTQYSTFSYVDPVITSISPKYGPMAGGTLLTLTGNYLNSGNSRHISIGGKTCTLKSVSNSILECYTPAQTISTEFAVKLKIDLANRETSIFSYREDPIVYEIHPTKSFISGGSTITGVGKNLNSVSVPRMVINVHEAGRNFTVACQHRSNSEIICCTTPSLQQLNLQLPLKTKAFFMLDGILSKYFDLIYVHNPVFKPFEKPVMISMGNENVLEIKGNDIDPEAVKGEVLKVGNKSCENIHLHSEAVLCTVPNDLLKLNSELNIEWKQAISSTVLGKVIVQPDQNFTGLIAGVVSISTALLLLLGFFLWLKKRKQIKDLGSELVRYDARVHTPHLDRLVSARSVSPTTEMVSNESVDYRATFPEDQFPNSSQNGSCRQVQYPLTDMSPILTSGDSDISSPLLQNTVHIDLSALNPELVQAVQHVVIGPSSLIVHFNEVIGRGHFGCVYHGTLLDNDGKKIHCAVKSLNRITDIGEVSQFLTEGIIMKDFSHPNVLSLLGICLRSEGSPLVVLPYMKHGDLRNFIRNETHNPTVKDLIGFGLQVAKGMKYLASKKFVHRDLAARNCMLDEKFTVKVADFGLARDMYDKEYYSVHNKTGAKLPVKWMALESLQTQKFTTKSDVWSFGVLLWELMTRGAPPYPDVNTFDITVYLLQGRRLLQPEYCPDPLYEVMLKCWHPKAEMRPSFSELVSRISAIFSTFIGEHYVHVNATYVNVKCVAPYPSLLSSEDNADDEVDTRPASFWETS
PRKCD (human), sequence (Q05655 whole entry, looked up): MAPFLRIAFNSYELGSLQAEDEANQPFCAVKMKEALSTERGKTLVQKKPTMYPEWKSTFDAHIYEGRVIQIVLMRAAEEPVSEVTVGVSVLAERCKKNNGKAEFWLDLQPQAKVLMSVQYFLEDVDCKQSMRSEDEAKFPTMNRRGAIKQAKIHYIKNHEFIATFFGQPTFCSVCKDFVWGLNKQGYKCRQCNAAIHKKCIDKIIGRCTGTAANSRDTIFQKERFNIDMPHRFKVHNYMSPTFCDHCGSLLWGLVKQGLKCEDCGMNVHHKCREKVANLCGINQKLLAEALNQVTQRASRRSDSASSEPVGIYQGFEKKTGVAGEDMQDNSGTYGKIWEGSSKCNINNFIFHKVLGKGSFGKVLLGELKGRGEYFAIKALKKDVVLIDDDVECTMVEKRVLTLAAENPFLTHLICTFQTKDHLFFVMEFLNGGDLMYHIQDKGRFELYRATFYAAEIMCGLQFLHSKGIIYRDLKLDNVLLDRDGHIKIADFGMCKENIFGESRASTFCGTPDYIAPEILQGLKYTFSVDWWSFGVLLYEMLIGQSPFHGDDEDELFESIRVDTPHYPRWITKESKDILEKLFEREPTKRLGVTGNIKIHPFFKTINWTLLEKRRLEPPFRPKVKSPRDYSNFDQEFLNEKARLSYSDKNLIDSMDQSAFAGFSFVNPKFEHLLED
SRMS (human), sequence (Q9H3Y6 whole entry, looked up): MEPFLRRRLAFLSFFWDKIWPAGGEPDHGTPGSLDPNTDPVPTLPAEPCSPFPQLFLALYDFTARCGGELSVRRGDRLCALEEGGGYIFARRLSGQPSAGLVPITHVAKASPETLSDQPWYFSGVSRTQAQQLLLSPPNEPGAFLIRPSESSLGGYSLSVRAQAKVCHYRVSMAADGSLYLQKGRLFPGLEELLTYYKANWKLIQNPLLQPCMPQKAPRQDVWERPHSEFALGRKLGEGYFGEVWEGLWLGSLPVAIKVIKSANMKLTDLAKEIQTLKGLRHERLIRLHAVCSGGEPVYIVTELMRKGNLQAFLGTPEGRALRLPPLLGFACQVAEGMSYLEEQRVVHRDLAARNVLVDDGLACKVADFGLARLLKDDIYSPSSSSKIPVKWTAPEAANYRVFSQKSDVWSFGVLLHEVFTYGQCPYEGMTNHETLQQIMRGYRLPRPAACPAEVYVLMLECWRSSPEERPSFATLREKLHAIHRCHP

SMILES | residual activity (ACVR1 (human)) [%] | residual activity (ADRBK1 (human)) [%] | residual activity (ADRBK2 (human)) [%] | residual activity (BRAF (human)) [%] | residual activity (CDC42BPA (human)) [%] | residual activity (CDC42BPB (human)) [%] | residual activity (CHEK1 (human)) [%] | residual activity (DSTYK (human)) [%] | residual activity (DYRK2 (human)) [%] | residual activity (EPHA6 (human)) [%] | residual activity (EPHB3 (human)) [%] | residual activity (FGFR4 (human)) [%] | residual activity (IGF1R (human)) [%] | residual activity (IRAK4 (human)) [%] | residual activity (LIMK1 (human)) [%] | residual activity (MET (human)) [%] | residual activity (NEK3 (human)) [%] | residual activity (NEK6 (human)) [%] | residual activity (NEK9 (human)) [%] | residual activity (NUAK2 (human)) [%] | also measured
CCN(CC)CCNC(=O)c1c(C)[nH]c(/C=C2\C(=O)Nc3ccc(F)cc32)c1C | 121 | 94.7 | 94.8 | 106 | 89.5 | 101 | 29.2 | 111 | 82.6 | 29.5 | 77.4 | 92.5 | 62.6 | 27.4 | 94.3 | 91 | 91.6 | 89 | 100 | 65 | residual activity (LYN (human)): 23% and 34.6%; residual activity (PDGFRA (human)): 10.9%; residual activity (PHKG1 (human)): 5.12%; residual activity (PHKG2 (human)): 20.6%; residual activity (PRKCD (human)): 95.1%; residual activity (RAF1 (human)): 110%; residual activity (RPS6KA6 KD1 KD2 (human)): 17.5%; residual activity (SRMS (human)): 99.6%; residual activity (STK16 (human)): 55.7%; residual activity (STK25 (human)): 76.1%; residual activity (TEC (human)): 94.8%; residual activity (TGFBR1 (human)): 101%; residual activity (TLK2 (human)): 63.3%; residual activity (TSSK2 (human)): 72.9%
COc1cc2ncnc(Nc3cccc(Cl)c3)c2cc1OC | 108 | 96.6 | 99.9 | 96 | 82.2 | 84.9 | 93.7 | 90.8 | 84.6 | 27.8 | 99.1 | 78.7 | 75.9 | 77.7 | 72.4 | 75.5 | 84.3 | 105 | 82.6 | 142 | residual activity (ABL1 (human)): 61.8%; residual activity (CAMK1G (human)): 93.6%; residual activity (DAPK2 (human)): 93.3%; residual activity (EPHB4 (human)): 59.7%; residual activity (MAP3K9 (human)): 82.8%; residual activity (PDGFRA (human)): 93.3%; residual activity (PHKG1 (human)): 88.9%; residual activity (PHKG2 (human)): 92.6%; residual activity (PRKCD (human)): 86.4%; residual activity (PTK2 (human)): 95.1%; residual activity (RAF1 (human)): 78.4%; residual activity (RPS6KA6 KD1 KD2 (human)): 90.5%; residual activity (SRMS (human)): 93.8%; residual activity (STK16 (human)): 101%; residual activity (STK25 (human)): 101%; residual activity (TEC (human)): 126%; residual activity (TGFBR1 (human)): 100%; residual activity (TLK2 (human)): 93.9%; residual activity (TSSK2 (human)): 94.8%
Nc1ncnc2[nH]nc(Nc3ccc(F)cc3)c12 | 127 | 98.6 | 102 | 91.7 | 103 | 106 | 88 | 109 | 90.6 | 49.3 | 87.7 | 107 | 104 | 88.3 | 95.2 | 124 | 102 | 102 | 97.9 | 90.4 | residual activity (ABL1 (human)): 88.1%; residual activity (CAMK1G (human)): 97.2%; residual activity (DAPK2 (human)): 85.5%; residual activity (EPHB4 (human)): 87.8%; residual activity (LYN (human)): 89.7% and 90.3%; residual activity (MAP3K9 (human)): 100%; residual activity (PDGFRA (human)): 101%; residual activity (PHKG1 (human)): 87.5%; residual activity (PHKG2 (human)): 101%; residual activity (PRKCD (human)): 112%; residual activity (PTK2 (human)): 103%; residual activity (RAF1 (human)): 96.7%; residual activity (RPS6KA6 KD1 KD2 (human)): 71.7%; residual activity (SRMS (human)): 104%; residual activity (STK16 (human)): 108%; residual activity (STK25 (human)): 112%; residual activity (TEC (human)): 86%; residual activity (TLK2 (human)): 79%; residual activity (TSSK2 (human)): 90.8%
